How the values were obtained:
[1] = system: V-SVZ-derived new neurons co-cultured with BV2 cells; test: Experiment 10: co-culture of V-SVZ-derived new neurons with LPS-stimulated BV2 cells; PSA signal and time-lapse imaging; assay type: cell-based, mouse; conditions: inhibitor final concentration 1 mM, vs PBS (LPS+) and control (LPS−)
V-SVZ-derived neurons = test: Experiment 12: Zanamivir in Nestin-CreERT2;NSE-DTA mice with new neurons removed; FFT and double-positive cells; assay type: in vivo, mouse; conditions: Nestin-CreERT2;NSE-DTA group, unlike NSE-DTA group; Zanamivir 50 mg/kg i.p. for 14 days from day 7 after injury; FFT 14 days after end of administration
[2] = system: new neurons migrating to the brain injury site; test: Experiment 13: Zanamivir in common marmosets with brain injury; PSA-NCAM and Dcx immunostaining; assay type: in vivo, common marmoset (Callithrix jacchus); conditions: common marmoset, 50 mg/kg i.p. for 21 days from day 7 after injury, fixed 28 days after injury
Neu3 = biological target: T1, Neu3 (Homo sapiens, UniProt Q9UQ49); conditions: human neuraminidases; reported; cited from earlier work
T1 sequence (Q9UQ49 1-461 isoform Q9UQ49-2): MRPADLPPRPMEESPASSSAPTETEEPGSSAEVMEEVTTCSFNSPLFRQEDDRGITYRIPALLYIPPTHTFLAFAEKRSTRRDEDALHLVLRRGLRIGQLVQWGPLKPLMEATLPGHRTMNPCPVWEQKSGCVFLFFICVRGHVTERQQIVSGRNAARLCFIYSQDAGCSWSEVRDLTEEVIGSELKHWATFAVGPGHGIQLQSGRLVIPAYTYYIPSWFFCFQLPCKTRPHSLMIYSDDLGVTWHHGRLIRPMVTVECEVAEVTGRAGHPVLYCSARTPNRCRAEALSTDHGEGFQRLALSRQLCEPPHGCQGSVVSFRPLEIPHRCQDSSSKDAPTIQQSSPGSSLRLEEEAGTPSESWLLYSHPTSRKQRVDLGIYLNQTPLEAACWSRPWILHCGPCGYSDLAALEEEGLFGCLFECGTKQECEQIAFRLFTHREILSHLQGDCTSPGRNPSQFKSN

Neu4 = biological target: T2, Neu4 (Homo sapiens, UniProt Q8WWR8); conditions: human neuraminidases; reported; cited from earlier work
T2 sequence (Q8WWR8 1-496 isoform Q8WWR8-2): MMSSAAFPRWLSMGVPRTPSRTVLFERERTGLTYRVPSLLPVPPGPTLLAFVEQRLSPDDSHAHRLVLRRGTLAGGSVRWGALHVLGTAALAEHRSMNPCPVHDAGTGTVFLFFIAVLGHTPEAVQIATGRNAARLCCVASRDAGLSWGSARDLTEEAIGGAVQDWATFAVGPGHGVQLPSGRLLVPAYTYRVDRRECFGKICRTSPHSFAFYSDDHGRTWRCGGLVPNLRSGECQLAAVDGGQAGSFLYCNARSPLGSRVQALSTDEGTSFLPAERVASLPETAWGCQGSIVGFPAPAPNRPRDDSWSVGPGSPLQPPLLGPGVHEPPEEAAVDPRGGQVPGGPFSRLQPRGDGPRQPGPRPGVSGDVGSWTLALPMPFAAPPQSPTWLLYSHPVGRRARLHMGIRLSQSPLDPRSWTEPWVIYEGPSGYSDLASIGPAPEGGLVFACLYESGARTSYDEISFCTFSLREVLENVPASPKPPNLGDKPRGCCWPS

Compound	PSA signal intensity [1]	left-side slipping-off rate in the FFT (V-SVZ-derived neurons)	localization of new neurons (distance of Dcx-positive cells from the injury site) ([2]; vs control)	PSA signal intensity of new neurons localized in the striatum on the injury side ([2]; vs non-administration control)	inhibitory effect on human Neu3 (Neu3)	inhibitory effect on human Neu4 (Neu4)
CC(=O)N[C@H]1[C@H]([C@H](O)[C@H](O)CO)OC(C(=O)O)=C[C@@H]1N=C(N)N [Zanamivir]	maintained	no improvement	localized closer to the injury site	maintain	inhibitory effect has been reported	inhibitory effect has been reported
CC(=O)N[C@H]1[C@H]([C@H](O)[C@H](O)CO)OC(C(=O)O)=C[C@@H]1O [DANA, 2,3-dehydro-2-deoxy-N-acetylneuraminic acid]	maintained	–	–	–	–	–

From US20260083761A1, “PHARMACEUTICAL COMPOSITION FOR TREATING BRAIN DISEASE, NEURONAL MIGRATION PROMOTER, AND USE THEREOF” (PUBLIC UNIVERSITY CORPORATION NAGOYA CITY UNIVERSITY, priority 2022, published 2026)
